Test system: OVCAR-8 complex spheroid, growth inhibition
Assay: Anticancer human tumor OVCAR-8 cell line growth inhibition [Asc];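 note: spheroids exposed to agents for 7 days before readout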;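 for viability, T/C: percent viability relative to DMSO vehicle wells taken as 100%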
Conditions: for viability, T/C: stronger effect = lower value; active = viability on the fitted dose curve at most 10% of control; inactive = the rest
Method: Multicellular complex tumor spheroid response to apoptosis pathway targeting inhibitors Alrizomadlin, Pelcitoclax, and Dasminapant in combination with a variety of drugs and investigational agents in selected tumor cell lines
The MDM2 inhibitor alrizomadlin, the Bcl-2/Bcl-xL inhibitor pelcitoclax, and the IAPs inhibitor dasminapant were evaluated both individually and in combination with standard of care and investigational anticancer small molecules within a complex spheroid model of solid tumors. . Complex spheroids include a stromal component modeled by human endothelial cells (HUVEC) and fibroblasts modeled by human mesenchymal stem cells (MSCs). The concentration ranges selected for each drug and investigational agent were based upon clinically achievable concentrations if the clinical Cmax of the agent was known.
Compounds. The drugs and investigational agents: alrizomadlin (APG-115; NSC831270), pelcitoclax (APG-1252; NSC835773), dasminapant (APG-1387;NSC834197), TAK-243 (NSC785004), copanlisib (NSC809693), olaparib (NSC753686), talazoparib (NSC767125), cobimetinib (NSC 768068), eltanexor (KPT-8602, NSC 794443), abemaciclib (NSC 768073), sotorasib (NSC818433), adagrasib (NSC 831453), MRTX-1133 (NSC 836407), Iadademestat (ORY1001, NSC 806812), and RMC-4630 (NSC839698), were obtained from the NCI Developmental Therapeutics Program Chemical Repository. The FDA-approved anticancer drug set is available from the Developmental Therapeutics Program at https://dtp.cancer.gov/organization/dscb/obtaining/available plates.htm. […] The stock solutions were prepared in dimethyl sulfoxide (DMSO, Sigma-Aldrich, St. Louis, MO, cat. D2650) at 800-fold the tested concentration and stored at -70 degrees C prior to their use. All drugs and investigational agents were tested over a range starting from a high concentration at or near the clinical Cmax and decreasing in half-log increments. If the clinical Cmax for an agent had not been determined, the highest concentration tested was 10 microM.
The patient-derived cancer (PDC) cell lines include five colon adenocarcinomas: 186277-243-T-J2-PDC, 616215-338-R-J1-PDC, 439559-082-T-J2-PDC, 463943-066-T-J2-PDC, and 519858-162-T-J1-PDC; three pancreatic carcinomas: 323965-272-R-J2-PDC, 521955-158-R6-J3-PDC, and 521955-158-R2-J5-PDC; two uterine sarcomas: 327498-152-R-J2-PDC and 993429-296-R-J1-PDC; two rhabdomyosarcomas: 755483-174-R-J1-PDC and 772245-204-R-J1-PDC; two soft tissue sarcomas: 126254-015-R-J1-PDC and 494315-158-R-J1-PDC; two malignant fibrous histiocytomas: 317291-083-R-J1-PDC and 596521-263-R-J1-PDC; two breast carcinomas: 171881-019-R-J1-PDC and 885512-296-R-J2-PDC; and one ovarian carcinoma: 6556581-035-R-J-PDC were obtained from the NCI PDMR, (https://pdmr.cancer.gov). The established cell lines HSSY-2 synovial sarcoma (RRID:CVCL 8719), SYO-1 synovial sarcoma (RRID:CVCL_7146), MPNST malignant peripheral neural sheath tumor were obtained from the Sloan Kettering Institute. The following established cell lines were purchased from the American Type Culture Collection (ATCC, Manassas, VA), Sor the received from the NCI repository:, PANC-1 pancreatic carcinoma (CRL-1469, RRID:CVCL_0480), OVCAR-5 ovarian carcinoma (RRID:CVCL_1628), OVCAR-8 ovarian carcinoma (RRID:CVCL_1629), , MCF-7 breast carcinoma (CRL-12584, RRID:CVCL_0031), MDA-MB-231 breast carcinoma (CRL-12532, RRID:CVCL_0062), NCI-H1876 small cell lung carcinoma (CRL-5902, RRID:CVCL_1503), NCI-H510A small cell lung carcinoma (HTB-184, RRID:CVCL_1565), NCI-H1417 (CRL-5869, RRID:CVCL_1469), and NCI-H196 small cell lung carcinoma (CRL-5823, RRID:CVCL_1509). Dr. Peter Houghton (Greehey Children's Cancer Research Institute, University of Texas Health Science Center, San Antonio, TX) provided Rh-18 rhabdomyosarcoma (RRID:CVCL_1659). Pooled donor human umbilical vein endothelial cells (HUVEC, Lonza, cat. CC-2519) and human mesenchymal stem cells (hMSC, Lonza, cat. PT-2501) were purchased from Lonza (Walkersville, MD).
Cell Culture. […]

[1] = curve of first compound, second compound 0.0316 µM
[2] = curve of first compound, second compound 0.1 µM
[3] = curve of first compound, second compound 0.316 µM
[4] = curve of first compound, second compound 1 µM
[5] = curve of first compound, second compound 3.16 µM
[6] = curve of first compound, second compound 10 µM
[7] = second compound 0.0316 µM, first compound 0.0316 µM
[8] = second compound 0.0316 µM, first compound 0.1 µM
[9] = second compound 0.0316 µM, first compound 0.316 µM
[10] = second compound 0.0316 µM, first compound 1 µM
[11] = second compound 0.0316 µM, first compound 3.16 µM
[12] = second compound 0.0316 µM, first compound 10 µM
[13] = second compound 0.1 µM, first compound 0.0316 µM
[14] = second compound 0.1 µM, first compound 0.1 µM
[15] = second compound 0.1 µM, first compound 0.316 µM
[16] = second compound 0.1 µM, first compound 1 µM
[17] = second compound 0.1 µM, first compound 3.16 µM
[18] = second compound 0.1 µM, first compound 10 µM
[19] = second compound 0.316 µM, first compound 0.0316 µM
[20] = second compound 0.316 µM, first compound 0.1 µM
[21] = second compound 0.316 µM, first compound 0.316 µM
[22] = second compound 0.316 µM, first compound 1 µM
[23] = second compound 0.316 µM, first compound 3.16 µM
[24] = second compound 0.316 µM, first compound 10 µM
[25] = second compound 1 µM, first compound 0.0316 µM
[26] = second compound 1 µM, first compound 0.1 µM
[27] = second compound 1 µM, first compound 0.316 µM
[28] = second compound 1 µM, first compound 1 µM
[29] = second compound 1 µM, first compound 3.16 µM
[30] = second compound 1 µM, first compound 10 µM
[31] = second compound 3.16 µM, first compound 0.0316 µM
[32] = second compound 3.16 µM, first compound 0.1 µM
[33] = second compound 3.16 µM, first compound 0.316 µM
[34] = second compound 3.16 µM, first compound 1 µM
[35] = second compound 3.16 µM, first compound 3.16 µM
[36] = second compound 3.16 µM, first compound 10 µM
[37] = second compound 10 µM, first compound 0.0316 µM
[38] = second compound 10 µM, first compound 0.1 µM
[39] = second compound 10 µM, first compound 0.316 µM
[40] = second compound 10 µM, first compound 1 µM
[41] = second compound 10 µM, first compound 3.16 µM
[42] = second compound 10 µM, first compound 10 µM

C#Cc1c(F)ccc2cc(O)cc(-c3ncc4c(N5CC6CCC(C5)N6)nc(OCC56CCCN5CC(F)C6)nc4c3F)c12 (stereo not given) + Cc1c(S(C)(=O)=O)c(-c2cc(F)cc(N3CCN(c4ccc(NS(=O)(=O)c5ccc(NC(CCN6CCC(C(=O)OCCCP(=O)(O)O)CC6)CSc6ccccc6)c(S(=O)(=O)C(F)(F)F)c5)cc4)CC3)c2)c(-c2ccc(Cl)cc2)n1C(C)C
inactive: viability, T/C [7] 86.8% | viability, T/C [8] 97.1% | viability, T/C [9] 87.3% | viability, T/C [10] 76.6% | viability, T/C [11] 84.9% | viability, T/C [12] 99.8% | viability, T/C [13] 85.2% | viability, T/C [14] 72.8% | viability, T/C [15] 90.1% | viability, T/C [16] 85.5% | viability, T/C [17] 90.4% | viability, T/C [18] 84.7% | viability, T/C [19] 78.2% | viability, T/C [20] 102% | viability, T/C [21] 95.4% | viability, T/C [22] 105% | viability, T/C [23] 94% | viability, T/C [24] 107% | viability, T/C [25] 95.1% | viability, T/C [26] 79% | viability, T/C [27] 84.6% | viability, T/C [28] 111% | viability, T/C [29] 106% | viability, T/C [30] 116% | viability, T/C [31] 85.1% | viability, T/C [32] 83.2% | viability, T/C [33] 89.8% | viability, T/C [34] 92.4% | viability, T/C [35] 102% | viability, T/C [36] 108% | viability, T/C [37] 91.5% | viability, T/C [38] 92.2% | viability, T/C [39] 81.1% | viability, T/C [40] 113% | viability, T/C [41] 94.2% | viability, T/C [42] 122%
> 10000 nM: IC50 [1] | IC50 [2] | IC50 [3] | IC50 [4] | IC50 [5] | IC50 [6]

C=C(F)C(=O)N1CCN(c2nc(OCC3CCCN3C)nc3c2CCN(c2cccc4cccc(Cl)c24)C3)CC1CC#N (stereo not given) + Cc1c(S(C)(=O)=O)c(-c2cc(F)cc(N3CCN(c4ccc(NS(=O)(=O)c5ccc(NC(CCN6CCC(C(=O)OCCCP(=O)(O)O)CC6)CSc6ccccc6)c(S(=O)(=O)C(F)(F)F)c5)cc4)CC3)c2)c(-c2ccc(Cl)cc2)n1C(C)C
2150 nM: IC50 [6]
active: viability, T/C [12] 2.02% | viability, T/C [18] 0.39% | viability, T/C [24] 0.28% | viability, T/C [30] 1.17% | viability, T/C [36] 0.35% | viability, T/C [42] 1.06%
inactive: viability, T/C [7] 102% | viability, T/C [8] 92.4% | viability, T/C [9] 91.8% | viability, T/C [10] 102% | viability, T/C [11] 33% | viability, T/C [13] 95.6% | viability, T/C [14] 94.3% | viability, T/C [15] 97.7% | viability, T/C [16] 111% | viability, T/C [17] 28.5% | viability, T/C [19] 90.3% | viability, T/C [20] 99.5% | viability, T/C [21] 98.7% | viability, T/C [22] 113% | viability, T/C [23] 31.5% | viability, T/C [25] 92.1% | viability, T/C [26] 88.2% | viability, T/C [27] 96% | viability, T/C [28] 114% | viability, T/C [29] 38.1% | viability, T/C [31] 102% | viability, T/C [32] 111% | viability, T/C [33] 93.2% | viability, T/C [34] 128% | viability, T/C [35] 25.5% | viability, T/C [37] 96.4% | viability, T/C [38] 73.3% | viability, T/C [39] 92.4% | viability, T/C [40] 121% | viability, T/C [41] 26.9%
2240 nM: IC50 [2]
2320 nM: IC50 [3]
2510 nM: IC50 [4]
2250 nM: IC50 [5]
2330 nM: IC50 [1]

CNC(C)C(=O)NC1CN(S(=O)(=O)c2cccc(S(=O)(=O)N3CCC4CCC(C(=O)NC(c5ccccc5)c5ccccc5)N4C(=O)C(NC(=O)C(C)NC)C3)c2)CCC2CCC(C(=O)NC(c3ccccc3)c3ccccc3)N2C1=O (stereo not given)
> 1000 nM: IC50 (curve of compound)

From PubChem BioAssay AID1963437 (Molecular Pharmacology Branch, DTP, NCI, 2024)
